According to PubChem BioAssay AID330 (DTP/NCI, 2004):
Where “and” joins values, the source holds several entries; their conditions need not be identical. Equal values may be shown once. Toxic doses and inconclusive results are not listed. The calls were made as follows: active = survival T/C of 150% or more; inactive = T/C below 125% in these data.

Tested on: P388 leukemia ip, CD2F1 mice, survival T/C
Experiment: NCI In Vivo Anticancer Drug Screen. Data for tumor model P388 Leukemia (intraperitoneal) in CD2F1 (CDF1) mice
Conditions: endpoint: median survival time, higher = longer survival
Outline: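 Mice carrying the transplanted tumor received test compound or vehicle. Survival was recorded in each group, and the value is the treated-group measurement divided by that of the vehicle-treated control group.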

[1] = dose: 50.0 mg/kg/injection, schedule: Q01DX009 (ip), vehicle: Klucel (hydroxypropylcellulose) (HPC)
[2] = dose: 100.0 mg/kg/injection, schedule: Q01DX009 (ip), vehicle: Klucel (hydroxypropylcellulose) (HPC)
[3] = dose: 200.0 mg/kg/injection, schedule: Q01DX009 (ip), vehicle: Klucel (hydroxypropylcellulose) (HPC)
[4] = dose: 50.0 mg/kg/injection, schedule: Q01DX005 (ip), vehicle: Klucel (hydroxypropylcellulose) (HPC)
[5] = dose: 100.0 mg/kg/injection, schedule: Q01DX005 (ip), vehicle: Klucel (hydroxypropylcellulose) (HPC)
[6] = dose: 200.0 mg/kg/injection, schedule: Q01DX005 (ip), vehicle: Klucel (hydroxypropylcellulose) (HPC)
[7] = dose: 100.0 mg/kg/injection, schedule: Q01DX009 (ip), vehicle: saline with Tween-80

Measured: T/C

C/C(=N\NC(=S)N1CCCCCC1)c1cccc2cccnc12
inactive: dose: 50.0 mg/kg/injection, schedule: Q01DX005 (ip), vehicle: saline with Tween-80 107 % of control | dose: 100.0 mg/kg/injection, schedule: Q01DX005 (ip), vehicle: saline with Tween-80 103 % of control | dose: 200.0 mg/kg/injection, schedule: Q01DX005 (ip), vehicle: saline with Tween-80 116 % of control

CCn1c(=O)c2[nH]c(Cl)nc2n(CCOC)c1=O
inactive: [1] 116 % of control | [2] 96 % of control | [3] 111 % of control

O=c1[nH]c(=O)n(C(c2ccccc2)(c2ccccc2)c2ccccc2)cc1N(CCO)CCO
inactive: [4] 100 % of control | [5] 97 % of control | [6] 98 % of control

O=C(C[n+]1ccnc2ccccc21)c1ccc(Cl)cc1
inactive: [4] 95 % of control | [5] 100 % of control | [6] 106 % of control

C/C=C/C(C)C1OC1(C)C(O)C1COC(=O)C(O)C(OC)C(C)C(=O)C(C)C(O)/C(C)=C/C(C)C(=O)CC(O)C(C)C1=O (configuration not stated)
inactive: dose: 0.39 micrograms/kg/injection, schedule: Q01DX005 (ip), vehicle: saline 106 % of control | dose: 0.78 micrograms/kg/injection, schedule: Q01DX005 (ip), vehicle: saline 119 % of control | dose: 1.56 micrograms/kg/injection, schedule: Q01DX005 (ip), vehicle: saline 123 % of control | dose: 3.12 micrograms/kg/injection, schedule: Q01DX005 (ip), vehicle: saline 119 % of control | dose: 6.25 micrograms/kg/injection, schedule: Q01DX005 (ip), vehicle: saline 113 % of control and 123 % of control

O=C1c2ccccc2CC1(Br)C(Br)c1ccccc1 (configuration not stated)
inactive: [7] 109 % of control | dose: 100.0 mg/kg/injection, schedule: Q04DX003 (ip), vehicle: saline with Tween-80 96 % of control | dose: 200.0 mg/kg/injection, schedule: Q01DX009 (ip), vehicle: saline with Tween-80 118 % of control | dose: 200.0 mg/kg/injection, schedule: Q04DX003 (ip), vehicle: saline with Tween-80 92 % of control | dose: 400.0 mg/kg/injection, schedule: Q01DX009 (ip), vehicle: saline with Tween-80 109 % of control | dose: 400.0 mg/kg/injection, schedule: Q04DX003 (ip), vehicle: saline with Tween-80 92 % of control

COC(=O)[CH2][Sn]([CH2]C(=O)OC)([CH]1CCCCC1)[CH]1CCCCC1
inactive: dose: 1.56 mg/kg/injection, schedule: Q01DX005 (ip), vehicle: Klucel (hydroxypropylcellulose) (HPC) 104 % of control | dose: 3.12 mg/kg/injection, schedule: Q01DX005 (ip), vehicle: Klucel (hydroxypropylcellulose) (HPC) 88 % of control | dose: 6.25 mg/kg/injection, schedule: Q01DX005 (ip), vehicle: Klucel (hydroxypropylcellulose) (HPC) 111 % of control and 88 % of control

O=C(CC(c1ccccc1)C1c2ccccc2C(=O)c2ccccc21)c1ccccc1 (configuration not stated)
inactive: [1] 87 % of control | [2] 93 % of control | [3] 92 % of control | dose: 400.0 mg/kg/injection, schedule: Q01DX009 (ip), vehicle: Klucel (hydroxypropylcellulose) (HPC) 88 % of control

O=C(Nc1ccc(Cl)cc1)Sc1nnc2c(n1)[nH]c1ccccc12
inactive: [4] 103 % of control | [5] 111 % of control | [6] 103 % of control

COP(=O)(O)/C(=N/NS(=O)(=O)c1ccc(C)cc1)c1ccccc1
inactive: dose: 12.5 mg/kg/injection, schedule: Q01DX009 (ip), vehicle: water 96 % of control | dose: 25.0 mg/kg/injection, schedule: Q01DX009 (ip), vehicle: water 96 % of control | dose: 50.0 mg/kg/injection, schedule: Q01DX009 (ip), vehicle: water 93 % of control | dose: 100.0 mg/kg/injection, schedule: Q01DX009 (ip), vehicle: water 98 % of control | dose: 200.0 mg/kg/injection, schedule: Q01DX009 (ip), vehicle: water 98 % of control | dose: 400.0 mg/kg/injection, schedule: Q01DX009 (ip), vehicle: water 97 % of control

CC(=O)N(c1nc2ccccc2n1C)C(C)C
inactive: dose: 25.0 mg/kg/injection, schedule: Q01DX009 (ip), vehicle: saline with Tween-80 110 % of control | dose: 50.0 mg/kg/injection, schedule: Q01DX009 (ip), vehicle: saline with Tween-80 98 % of control | [7] 115 % of control
